How the values were obtained:
[1] = tested on: small bowel ulcers; conditions: rats, cited from earlier work; for ulcer healing: glutamine given in a guar gum
[2] = tested on: gastric reflux (heartburn); assay: Example 9: patient with stress-related gastric reflux takes L-lysine confection; format: in vivo, human; conditions: for effect of the patient's earlier treatments on gastric reflux / heartburn: same patient, Nexium 40 mg twice a day
[3] = tested on: aspirin induced gastric lesions; assay: Prevention of aspirin induced gastric lesions (U.S. Pat. No. 3,988,466, Table 1); format: in vivo; conditions: aspirin induced gastric lesions (Table 1)
Procedure: (§1) U.S. Pat. No. 3,988,466 reports that amino acids, particularly, L-glutamine are effective for the prevention or treatment of certain experimental ulcers, induced artificially by stress or pylorus ligation, or chemically by histamine, reserpine, cortisone, or inflammatory agents when given simultaneously. Further, such prevention only occurred when the concomitant dosage of the amino acid, L-glutamine, present was 2-5 g for a dose of aspirin of 0.3-1.0 g or for 25-50 mg of indomethacin, the required dose of L-glutamine was 2 g. […] Glutamine was ineffective in prevention of indomethacin induced gastric lesions at a dose of 15.6 mg/kg (Table 2) which is equivalent to 1.1 g for an human adult (70 kg weight). No use or indication for relief of gastric distress before or after lesion formation was observed, nor could it have been in the animal model used. No use or indication for relief of gastric lesions after lesion formation was disclosed. […] Of the 24 amino acids tried at the pharmaceutically unacceptable level of 750 mg/kg (calculated to be 52.5 g of the amino acid for a 70 kg human dose), all but DL-tryptophan, L-aspartic acid, L-tyrosine, L-cysteine and L-cystine gave more than 50% inhibition of ulcers. The pH of the amino acids was not a factor in ulcer prevention, showing that “the effect of amino acids is different from that of antacids” (Col 6, lines 27-31)

[4] = tested on: indomethacin induced gastric lesions; assay: Prevention of indomethacin induced gastric lesions (U.S. Pat. No. 3,988,466, Table 2); format: in vivo; conditions: indomethacin induced gastric lesions (Table 2)
Procedure: as §1

[5] = tested on: aspirin induced gastric lesions; conditions: cited from earlier work
[6] = tested on: indomethacin induced gastric lesions; conditions: cited from earlier work

N=C(N)NCCC[C@H](N)C(=O)O [L-arginine]
decrease in ulcer number ([1]; L-arginine together with yeast RNA (antagonistic)): 34%
ulcer healing [1]: somewhat effective

COc1ccc2nc([S@@+]([O-])Cc3ncc(C)c(OC)c3C)[nH]c2c1 [Nexium, esomeprazole, reference compound]
effect of the patient's earlier treatments on gastric reflux / heartburn [2]: continued heartburn

O=C([O-])[O-].[Ca+2] [calcium carbonate antacids, calcium carbonate, reference compound]
effect of the patient's earlier treatments on gastric reflux / heartburn [2]: ineffective

NC(=O)CC[C@H](N)C(=O)O [Glutamine, L-glutamine]
minimum effective dose calculated for a 70 kg human [3]: 8.75 g
minimum effective dose calculated for a 70 kg human [4]: 2.2 g
minimum effective dose ([5]; aspirin induced gastric lesions (Table 1)): 125 mg/kg
prevention of aspirin induced gastric lesions ([5]; dose of 62.5 mg/kg): completely ineffective
prevention of indomethacin induced gastric lesions ([6]; dose of 15.6 mg/kg): ineffective
minimum effective dose ([6]; indomethacin induced gastric lesions (Table 2)): 31.3 mg/kg
ulcer healing [1]: no effect

NCCCC[C@H](N)C(=O)O [L-lysine]
time to complete cessation of all symptoms ([2]; 1 gram dose as a carrageenan confection): one
relief of heartburn ([2]; 1 gram dose as a carrageenan confection, patient with gastric reflux due to stress): immediate relief

Source: patent US20070202058A1, “Compositions for treating gastric reflux” (priority 2006, published 2007)
